Assay results as given in patent publication US20260285850A1, “SUBSTITUTED OXAZOLIDINONES AND IMIDAZOLINONES AS HERBICIDES” (FMC CORPORATION, priority 2023, published 2026).

Assays:
Format in all cases: in vivo
[1] = system: barnyardgrass (Echinochloa crus-galli); test: Test A preemergence soil spray, visual injury rating 0-100; settings: 10 days
How it was run: (§1)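 Plants in a loam and sand soil blend were treated with each test chemical, in a non-phytotoxic solvent system including surfactant, either sprayed on seeded soil before emergence or applied after emergence at the one- to two-leaf stage. Ten days later in the greenhouse, plants were compared with untreated controls and visually rated from 0 (no effect) to 100 (complete control).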

[2] = system: blackgrass (Alopecurus myosuroides); test: as above; settings: 10 days
How it was run: as §1

corn (Zea mays) [3] = test: as above; settings: 10 days
How it was run: as §1

[4] = system: green foxtail (Setaria viridis); test: as above; settings: 10 days
How it was run: as §1

kochia (Bassia scoparia) [5] = test: as above; settings: 10 days
How it was run: as §1

[6] = system: oat, wild (wild oat, Avena fatua); test: as above; settings: 10 days
How it was run: as §1

[7] = system: palmer (palmer amaranth, palmer pigweed, Amaranthus palmeri); test: as above; settings: 10 days
How it was run: as §1

[8] = system: ragweed (common ragweed, Ambrosia artemisiifolia); test: as above; settings: 10 days
How it was run: as §1

[9] = system: ryegrass, Italian (italian ryegrass, Lolium multiflorum); test: as above; settings: 10 days
How it was run: as §1

soybean (Glycine max) [10] = test: as above; settings: 10 days
How it was run: as §1

[11] = system: wheat (Triticum aestivum); test: as above; settings: 10 days
How it was run: as §1

[12] = system: barnyardgrass (Echinochloa crus-galli); test: Test A postemergence application, visual injury rating 0-100
How it was run: as §1

[13] = system: blackgrass (Alopecurus myosuroides); test: as above
How it was run: as §1

corn (Zea mays) [14] = test: as above
How it was run: as §1

[15] = system: galium (catchweed bedstraw, Galium aparine); test: as above
How it was run: as §1

[16] = system: green foxtail (Setaria viridis); test: as above
How it was run: as §1

[17] = system: horseweed (Erigeron canadensis); test: as above
How it was run: as §1

kochia (Bassia scoparia) [18] = test: as above
How it was run: as §1

[19] = system: oat, wild (wild oat, Avena fatua); test: as above
How it was run: as §1

[20] = system: palmer (palmer amaranth, palmer pigweed, Amaranthus palmeri); test: as above
How it was run: as §1

[21] = system: ragweed (common ragweed, Ambrosia artemisiifolia); test: as above
How it was run: as §1

[22] = system: ryegrass, Italian (italian ryegrass, Lolium multiflorum); test: as above
How it was run: as §1

soybean (Glycine max) [23] = test: as above
How it was run: as §1

[24] = system: wheat (Triticum aestivum); test: as above
How it was run: as §1

[25] = system: barnyardgrass (Echinochloa crusgalli); test: Test B flooded paddy test, visual plant response rating 0-100; settings: 250 g ai/ha, Flood, applied to paddy water, evaluated after 13 days
How it was run: (§2)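 2-leaf plants; flood 3 cm over soil; compound dosed into paddy water; depth kept constant; greenhouse 13 d; visual scoring vs controls. Dash = no result.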

[26] = system: ducksalad (Heteranthera limosa); test: as above; settings: 250 g ai/ha, Flood, applied to paddy water, evaluated after 13 days
How it was run: as §2

rice (Oryza sativa) = test: as above; settings: 250 g ai/ha, Flood, applied to paddy water, evaluated after 13 days
How it was run: as §2

[27] = system: sedge, umbrella (small-flower umbrella sedge, Cyperus difformis); test: as above; settings: 250 g ai/ha, Flood, applied to paddy water, evaluated after 13 days
How it was run: as §2

[28] = 62 g ai/ha, 0 = no effect, 100 = complete control
[29] = 62 g ai/ha, postemergence, 10 days, 0 = no effect, 100 = complete control
[30] = Postemergence, 16 g ai/ha, greenhouse 10 days, 0 no effect, 100 complete control

With `COC(=O)C1CC(NC(=O)C2(C)CN(c3cc(F)cc(F)c3)C(=O)O2)C1` (stereo not shown) [Compound 130] the “Barnyardgrass plant response rating” value ([1]; 16 g ai/ha, 0 to 100 scale) was 0, the “Barnyardgrass plant response rating (0-100)” value [1, 28] was 70 and the “Blackgrass plant response rating” value ([2]; 16 g ai/ha, 0 to 100 scale) was 70. The “Blackgrass plant response rating (0-100)” value [2, 28] was 90, the “Corn plant response rating” value (corn (Zea mays) [3]; 16 g ai/ha, 0 to 100 scale) was 10 and the “Corn plant response rating (0-100)” value (corn (Zea mays) [3]; [28]) was 90. The “Foxtail, Green plant response rating” value ([4]; 16 g ai/ha, 0 to 100 scale) was 50, the “Foxtail, Green plant response rating (0-100)” value [4, 28] was 90 and the “Kochia plant response rating” value (kochia (Bassia scoparia) [5]; 16 g ai/ha, 0 to 100 scale) was 0. The “Kochia plant response rating (0-100)” value (kochia (Bassia scoparia) [5]; [28]) was 90, the “Oat, Wild plant response rating” value ([6]; 16 g ai/ha, 0 to 100 scale) was 50 and the “Oat, Wild plant response rating (0-100)” value [6, 28] was 90. The “Pigweed, Palmer plant response rating” value ([7]; 16 g ai/ha, 0 to 100 scale) was 10, the “Pigweed, Palmer plant response rating (0-100)” value [7, 28] was 30 and the “Ragweed plant response rating” value ([8]; 16 g ai/ha, 0 to 100 scale) was 0. For the same compound, the “Ragweed plant response rating (0-100)” value [8, 28] was 0, the “Ryegrass, Italian plant response rating” value ([9]; 16 g ai/ha, 0 to 100 scale) was 40 and the “Ryegrass, Italian plant response rating (0-100)” value [9, 28] was 90. The “Soybean plant response rating” value (soybean (Glycine max) [10]; 16 g ai/ha, 0 to 100 scale) was 0, the “Soybean plant response rating (0-100)” value (soybean (Glycine max) [10]; [28]) was 40 and the “Wheat plant response rating” value ([11]; 16 g ai/ha, 0 to 100 scale) was 90. The “Wheat plant response rating (0-100)” value [11, 28] was 90, the “Barnyardgrass plant response rating (0-100)” value [12, 29] was 80 and the “Barnyardgrass plant response rating (0 to 100 scale)” value [12, 30] was 70. The “Blackgrass plant response rating (0-100)” value [13, 29] was 90, the “Blackgrass plant response rating (0 to 100 scale)” value [13, 30] was 90 and the “Corn plant response rating (0-100)” value (corn (Zea mays) [14]; [29]) was 100. The “Corn plant response rating (0 to 100 scale)” value (corn (Zea mays) [14]; [30]) was 100, the “Galium plant response rating (0-100)” value [15, 29] was 90 and the “Galium plant response rating (0 to 100 scale)” value [15, 30] was 70. The “Foxtail, Green plant response rating (0-100)” value [16, 29] was 90, the “Foxtail, Green plant response rating (0 to 100 scale)” value [16, 30] was 90 and the “Horseweed plant response rating (0-100)” value [17, 29] was 30. For the same compound, the “Horseweed plant response rating (0 to 100 scale)” value [17, 30] was 10, the “Kochia plant response rating (0-100)” value (kochia (Bassia scoparia) [18]; [29]) was 90 and the “Kochia plant response rating (0 to 100 scale)” value (kochia (Bassia scoparia) [18]; [30]) was 80. For the same compound, the “Oat, Wild plant response rating (0-100)” value [19, 29] was 90, the “Oat, Wild plant response rating (0 to 100 scale)” value [19, 30] was 90 and the “Pigweed, Palmer plant response rating (0-100)” value [20, 29] was 90. For the same compound, the “Pigweed, Palmer plant response rating (0 to 100 scale)” value [20, 30] was 80, the “Ragweed plant response rating (0-100)” value [21, 29] was 30 and the “Ragweed plant response rating (0 to 100 scale)” value [21, 30] was 20. For the same compound, the “Ryegrass, Italian plant response rating (0-100)” value [22, 29] was 90, the “Ryegrass, Italian plant response rating (0 to 100 scale)” value [22, 30] was 70 and the “Soybean plant response rating (0-100)” value (soybean (Glycine max) [23]; [29]) was 70. For the same compound, the “Soybean plant response rating (0 to 100 scale)” value (soybean (Glycine max) [23]; [30]) was 60, the “Wheat plant response rating (0-100)” value [24, 29] was 90 and the “Wheat plant response rating (0 to 100 scale)” value [24, 30] was 90. The “Plant response rating, Barnyardgrass (0 to 100 scale, 0 is no effect and 100 is complete control)” value [25] was 80, the “Plant response rating, Ducksalad (0 to 100 scale, 0 is no effect and 100 is complete control)” value [26] was 100 and the “Plant response rating, Rice (0 to 100 scale, 0 is no effect and 100 is complete control)” value (rice (Oryza sativa)) was 60. The “Plant response rating, Sedge, Umbrella (0 to 100 scale, 0 is no effect and 100 is complete control)” value [27] was 90.
